Experimental data reported in patent publication US9790228B2, “Heterocyclic kinase inhibitors” (Intellikine LLC, priority 2008, dated 2017).
pIC50: −log10 of the molar value.

Columns and labels:
Type in all cases: biochemical
[1] = biological target: p110δ/p85α (Homo sapiens (Human), UniProt O00329); experiment: PI3K δ inhibition assay (TLC lipid kinase or HTRF)
Protocol: (§1) Class I PI3-Ks can be either purchased (p110α/p85α, p110β/p85α, p110δ/p85α from Upstate, and p110γ from Sigma) or expressed as previously described (Knight et al., 2004). IC50 values are measured using either a standard TLC assay for lipid kinase activity (described below) or a high-throughput membrane capture assay. Kinase reactions are performed by preparing a reaction mixture containing kinase, inhibitor (2% DMSO final concentration), buffer (25 mM HEPES, pH 7.4, 10 mM MgCl2), and freshly sonicated phosphatidylinositol (100 μg/ml). Reactions are initiated by the addition of ATP containing 10 μCi of γ-32P-ATP to a final concentration 10 or 100 μM and allowed to proceed for 5 minutes at room temperature. For TLC analysis, reactions are then terminated by the addition of […] 1N HCl followed by 160 μl CHCl3:MeOH (1:1). The biphasic mixture is vortexed, briefly centrifuged, and the organic phase is transferred to a new tube using a gel loading pipette tip precoated with CHCl3. This extract is spotted on TLC plates and developed for 3-4 hours in a 65:35 solution of n-propanol:1M acetic acid. The TLC plates are then dried, exposed to a phosphorimager screen (Storm, Amersham), and quantitated. For each compound, kinase activity is measured at 10-12 inhibitor concentrations representing two-fold dilutions from the highest concentration tested (typically, 200 μM).
(§2) Other commercial kits or systems for assaying PI3-K activities are available. The commercially available kits or systems can be used to screen for inhibitors and/or agonists of PI3-Ks including but not limited to PI 3-Kinase α, β, δ, and γ. Anr exemplary system is PI3-Kinase (human) HTRF™ Assay from Upstate. […] Briefly, the assay is a time resolved FRET assay that indirectly measures PIP3 product formed by the activity of a PI3-K. The kinase reaction is performed in a microtitre plate (e.g., a 384 well microtitre plate). The total reaction volume is approximately 20 ul per well. In the first step, each well receives 2 ul of test compound in 20% dimethylsulphoxide resulting in a 2% DMSO final concentration. Next, approximately 14.5 ul of a kinase/PIP2 mixture (diluted in 1× reaction buffer) is added per well for a final concentration of 0.25-0.3 ug/ml kinase and 10 uM PIP2. The plate is sealed and incubated for 15 minutes at room temperature. To start the reaction, 3.5 ul of ATP (diluted in 1× reaction buffer) is added per well for a final concentration of 10 uM ATP. The plate is sealed and incubated for 1 hour at room temperature. The reaction is stopped by adding 5 ul of Stop Solution per well and then 5 ul of Detection Mix is added per well. The plate is sealed, incubated for 1 hour at room temperature, and then read on an appropriate plate reader. Data is analyzed and IC50s are generated using GraphPad Prism 5.

[2] = biological target: p110γ (Homo sapiens (Human), UniProt P48736); experiment: PI3K γ inhibition assay (TLC lipid kinase or HTRF)
Sequence of p110γ (P48736 whole entry): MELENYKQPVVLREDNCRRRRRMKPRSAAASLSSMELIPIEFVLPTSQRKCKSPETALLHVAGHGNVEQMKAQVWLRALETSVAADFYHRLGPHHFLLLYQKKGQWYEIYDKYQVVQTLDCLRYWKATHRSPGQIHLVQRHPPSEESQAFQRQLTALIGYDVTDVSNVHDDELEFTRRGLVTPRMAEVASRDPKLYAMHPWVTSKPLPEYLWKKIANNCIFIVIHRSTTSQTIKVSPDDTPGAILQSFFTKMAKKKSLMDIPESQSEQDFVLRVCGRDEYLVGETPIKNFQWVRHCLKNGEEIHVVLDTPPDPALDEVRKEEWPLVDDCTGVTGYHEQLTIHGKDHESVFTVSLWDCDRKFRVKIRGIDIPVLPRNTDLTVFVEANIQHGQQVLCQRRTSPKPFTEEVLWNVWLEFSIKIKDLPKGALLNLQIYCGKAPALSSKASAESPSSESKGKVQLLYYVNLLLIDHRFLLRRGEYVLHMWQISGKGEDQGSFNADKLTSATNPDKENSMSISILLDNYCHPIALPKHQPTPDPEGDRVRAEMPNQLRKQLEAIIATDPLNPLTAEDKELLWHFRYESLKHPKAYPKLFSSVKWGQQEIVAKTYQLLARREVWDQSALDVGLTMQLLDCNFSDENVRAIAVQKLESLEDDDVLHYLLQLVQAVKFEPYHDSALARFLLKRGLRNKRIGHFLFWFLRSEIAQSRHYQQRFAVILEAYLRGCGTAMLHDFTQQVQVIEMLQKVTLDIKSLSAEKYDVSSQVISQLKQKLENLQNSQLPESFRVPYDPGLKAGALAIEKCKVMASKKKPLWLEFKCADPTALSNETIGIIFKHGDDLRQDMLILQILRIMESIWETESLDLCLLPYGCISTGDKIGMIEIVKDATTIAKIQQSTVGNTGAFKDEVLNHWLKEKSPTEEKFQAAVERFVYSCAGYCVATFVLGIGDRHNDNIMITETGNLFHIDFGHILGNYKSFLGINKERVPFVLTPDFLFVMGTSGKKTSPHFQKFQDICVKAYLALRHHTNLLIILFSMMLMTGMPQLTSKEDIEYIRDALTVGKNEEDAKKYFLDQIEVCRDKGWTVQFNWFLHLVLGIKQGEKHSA
Protocol: as §1, §2

[3] = biological target: p110α/p85α (Homo sapiens (Human), UniProt P42336); experiment: PI3K α inhibition assay (TLC lipid kinase or HTRF)
Sequence of p110α/p85α (P42336 whole entry): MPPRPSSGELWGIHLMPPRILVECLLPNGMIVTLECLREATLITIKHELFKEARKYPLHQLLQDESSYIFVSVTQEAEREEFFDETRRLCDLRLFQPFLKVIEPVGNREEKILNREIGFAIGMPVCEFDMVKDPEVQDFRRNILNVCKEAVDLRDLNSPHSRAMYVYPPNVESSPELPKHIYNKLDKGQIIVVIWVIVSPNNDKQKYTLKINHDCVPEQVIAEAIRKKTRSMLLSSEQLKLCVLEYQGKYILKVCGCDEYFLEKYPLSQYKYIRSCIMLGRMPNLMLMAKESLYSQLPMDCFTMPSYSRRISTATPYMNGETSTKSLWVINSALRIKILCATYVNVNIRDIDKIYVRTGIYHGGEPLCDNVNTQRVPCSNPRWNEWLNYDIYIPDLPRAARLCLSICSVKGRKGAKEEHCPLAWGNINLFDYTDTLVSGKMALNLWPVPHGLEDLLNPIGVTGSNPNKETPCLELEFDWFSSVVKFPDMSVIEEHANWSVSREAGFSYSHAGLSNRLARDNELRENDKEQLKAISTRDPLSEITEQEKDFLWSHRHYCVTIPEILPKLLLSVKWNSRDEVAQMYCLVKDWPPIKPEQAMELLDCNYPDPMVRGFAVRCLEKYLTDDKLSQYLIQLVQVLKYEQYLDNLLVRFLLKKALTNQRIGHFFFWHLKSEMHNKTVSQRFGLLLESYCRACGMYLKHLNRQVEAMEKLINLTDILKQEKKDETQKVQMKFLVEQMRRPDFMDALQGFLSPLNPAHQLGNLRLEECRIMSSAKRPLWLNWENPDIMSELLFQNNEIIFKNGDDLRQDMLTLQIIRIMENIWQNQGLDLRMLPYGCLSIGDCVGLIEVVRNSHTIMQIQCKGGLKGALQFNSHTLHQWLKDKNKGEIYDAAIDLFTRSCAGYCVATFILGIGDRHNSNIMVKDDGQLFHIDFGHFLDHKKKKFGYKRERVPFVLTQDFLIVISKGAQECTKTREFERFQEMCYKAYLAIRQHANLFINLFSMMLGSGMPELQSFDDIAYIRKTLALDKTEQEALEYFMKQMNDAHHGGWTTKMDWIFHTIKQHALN
Sequence of p110α/p85α (P27986 whole entry partner): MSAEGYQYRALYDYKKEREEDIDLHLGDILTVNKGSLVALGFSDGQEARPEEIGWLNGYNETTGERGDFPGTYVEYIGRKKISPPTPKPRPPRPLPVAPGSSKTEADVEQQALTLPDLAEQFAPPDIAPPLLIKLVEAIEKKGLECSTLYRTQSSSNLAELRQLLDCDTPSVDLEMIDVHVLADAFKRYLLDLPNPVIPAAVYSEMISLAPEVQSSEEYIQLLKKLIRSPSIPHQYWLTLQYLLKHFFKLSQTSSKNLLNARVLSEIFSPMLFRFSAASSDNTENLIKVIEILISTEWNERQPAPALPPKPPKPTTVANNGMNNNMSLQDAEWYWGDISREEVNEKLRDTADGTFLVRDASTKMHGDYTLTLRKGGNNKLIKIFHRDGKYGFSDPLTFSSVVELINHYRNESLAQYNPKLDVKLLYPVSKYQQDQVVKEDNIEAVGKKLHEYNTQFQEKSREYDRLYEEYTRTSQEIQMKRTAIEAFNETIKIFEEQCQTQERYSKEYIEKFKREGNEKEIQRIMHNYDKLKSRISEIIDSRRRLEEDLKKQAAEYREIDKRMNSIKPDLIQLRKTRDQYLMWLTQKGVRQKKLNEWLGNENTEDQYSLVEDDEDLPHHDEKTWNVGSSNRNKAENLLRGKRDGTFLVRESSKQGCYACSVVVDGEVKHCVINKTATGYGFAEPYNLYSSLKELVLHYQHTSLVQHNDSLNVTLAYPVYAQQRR
Protocol: as §1, §2

[4] = biological target: p110β/p85α (Homo sapiens, UniProt P42338); experiment: PI3K β inhibition assay (TLC lipid kinase or HTRF); conditions: read-out: PI3K β IC50
Sequence of p110β/p85α (P42338 whole entry, looked up): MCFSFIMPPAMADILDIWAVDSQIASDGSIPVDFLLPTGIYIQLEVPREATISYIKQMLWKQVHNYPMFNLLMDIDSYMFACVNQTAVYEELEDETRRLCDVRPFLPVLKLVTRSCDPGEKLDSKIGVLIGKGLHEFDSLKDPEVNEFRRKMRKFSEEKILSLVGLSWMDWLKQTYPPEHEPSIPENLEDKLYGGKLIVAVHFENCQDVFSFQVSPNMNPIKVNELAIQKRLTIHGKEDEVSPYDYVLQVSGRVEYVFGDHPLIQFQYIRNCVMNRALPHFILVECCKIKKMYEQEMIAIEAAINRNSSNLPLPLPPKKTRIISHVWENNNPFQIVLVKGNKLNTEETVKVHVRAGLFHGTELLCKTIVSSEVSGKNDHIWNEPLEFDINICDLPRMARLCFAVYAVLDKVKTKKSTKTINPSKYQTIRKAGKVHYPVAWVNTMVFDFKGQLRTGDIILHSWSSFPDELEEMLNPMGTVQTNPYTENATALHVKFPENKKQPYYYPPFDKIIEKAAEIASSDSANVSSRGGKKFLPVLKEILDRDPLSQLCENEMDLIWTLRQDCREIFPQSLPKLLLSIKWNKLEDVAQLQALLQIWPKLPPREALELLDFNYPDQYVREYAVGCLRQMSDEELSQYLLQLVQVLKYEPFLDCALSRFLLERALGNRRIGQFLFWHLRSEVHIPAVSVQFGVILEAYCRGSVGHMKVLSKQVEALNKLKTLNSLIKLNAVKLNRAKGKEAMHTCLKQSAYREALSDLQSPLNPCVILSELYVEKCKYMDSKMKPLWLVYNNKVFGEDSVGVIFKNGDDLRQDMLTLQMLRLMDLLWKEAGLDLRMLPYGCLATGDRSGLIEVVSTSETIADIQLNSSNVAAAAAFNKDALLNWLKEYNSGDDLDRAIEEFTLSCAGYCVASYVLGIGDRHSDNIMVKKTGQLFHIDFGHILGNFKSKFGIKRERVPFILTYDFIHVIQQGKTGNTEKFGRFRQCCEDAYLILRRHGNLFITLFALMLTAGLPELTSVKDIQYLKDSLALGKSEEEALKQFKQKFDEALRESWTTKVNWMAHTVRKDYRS
Protocol: as §1, §2

Sequence of p110δ/p85α (O00329 whole entry): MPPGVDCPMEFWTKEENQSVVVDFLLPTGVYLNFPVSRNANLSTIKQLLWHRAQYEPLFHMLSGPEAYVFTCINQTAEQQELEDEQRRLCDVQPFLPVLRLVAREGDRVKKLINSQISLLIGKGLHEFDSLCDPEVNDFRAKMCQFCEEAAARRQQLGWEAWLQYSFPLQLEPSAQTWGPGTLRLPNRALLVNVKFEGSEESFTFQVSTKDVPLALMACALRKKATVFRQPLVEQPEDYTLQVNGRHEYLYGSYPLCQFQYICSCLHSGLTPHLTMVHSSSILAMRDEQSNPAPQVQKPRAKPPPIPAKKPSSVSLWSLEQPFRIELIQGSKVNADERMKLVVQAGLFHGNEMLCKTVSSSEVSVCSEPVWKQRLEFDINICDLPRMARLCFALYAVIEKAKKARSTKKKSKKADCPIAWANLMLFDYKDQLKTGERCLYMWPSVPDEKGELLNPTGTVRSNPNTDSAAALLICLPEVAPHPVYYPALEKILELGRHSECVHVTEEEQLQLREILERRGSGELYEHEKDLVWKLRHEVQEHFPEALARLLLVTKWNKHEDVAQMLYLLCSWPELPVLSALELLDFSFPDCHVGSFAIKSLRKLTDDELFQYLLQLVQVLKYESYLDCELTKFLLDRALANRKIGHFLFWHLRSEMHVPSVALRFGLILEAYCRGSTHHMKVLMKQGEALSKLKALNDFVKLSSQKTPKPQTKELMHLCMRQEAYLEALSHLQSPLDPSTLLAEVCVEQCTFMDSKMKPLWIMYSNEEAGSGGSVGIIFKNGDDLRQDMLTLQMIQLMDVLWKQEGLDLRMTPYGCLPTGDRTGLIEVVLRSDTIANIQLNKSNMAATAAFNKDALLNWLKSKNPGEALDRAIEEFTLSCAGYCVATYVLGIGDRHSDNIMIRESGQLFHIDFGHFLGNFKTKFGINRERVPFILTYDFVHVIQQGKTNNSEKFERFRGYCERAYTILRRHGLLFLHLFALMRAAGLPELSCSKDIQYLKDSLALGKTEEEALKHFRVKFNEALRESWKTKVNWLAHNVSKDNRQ
Sequence of p110δ/p85α (P27986 whole entry partner): as the sequence (P27986 whole entry partner) above

SMILES: Nc1ncnc2c1c(-c1cc(O)cc(F)c1)nn2Cc1cc2ccccc2nc1NC1CCCC1 [Compound 33]
- pIC50 [1]: 6.00 to 7.00

SMILES: CC(C)n1c(=O)c(Cn2nc(-c3cccc(O)c3)c3c(N)ncnc32)cc2ccccc21 [Compound 110]
- pIC50 [2]: < 6.00
- pIC50 [3]: < 6.00
- pIC50 [1]: 6.00 to 7.00
- pIC50 [4]: < 6.00

SMILES: CC(Nc1ncnc2[nH]cnc12)c1cc2ccccc2nc1-c1ccccc1 (stereo not drawn) [Compound 93]
- pIC50 [2]: 6.00 to 7.00
- pIC50 [3]: < 6.00
- pIC50 [1]: > 7.00
- pIC50 [4]: < 6.00

SMILES: Cn1c(=O)c(Cn2nc(-c3cccc(O)c3)c3c(N)ncnc32)cc2ccccc21 [Compound 111]
- pIC50 [2]: < 6.00
- pIC50 [3]: < 6.00
- pIC50 [1]: 6.00 to 7.00
- pIC50 [4]: < 6.00

SMILES: CC(=O)Nc1nc2ccc(-c3nn(Cc4cc5ccccc5nc4N4CCN(C(C)C)CC4)c4ncnc(N)c34)cc2s1 [Compound 163]
- pIC50 [3]: 6.00 to 7.00
- pIC50 [4]: > 7.00

SMILES: Nc1ncnc2c1c(/C=C1/CCNC1=O)nn2Cc1cc2ccccc2nc1-c1ccccc1F [Compound 193]
- pIC50 [2]: < 6.00
- pIC50 [3]: < 6.00
- pIC50 [1]: < 6.00
- pIC50 [4]: < 6.00

SMILES: Cc1ccccc1-c1ncccc1Cn1nc(-c2cccc(O)c2)c2c(N)ncnc21 [Compound 120]
- pIC50 [1]: < 6.00

SMILES: CCn1c(=O)c(Cn2nc(-c3ccc4nc(N)sc4c3)c3c(N)ncnc32)nc2ccccc21 [Compound 119]
- pIC50 [2]: > 7.00
- pIC50 [3]: 6.00 to 7.00
- pIC50 [1]: > 7.00
- pIC50 [4]: < 6.00

SMILES: CCn1c(=O)c(Cn2nc(-c3cccc(O)c3)c3c(N)ncnc32)cc2ccccc21 [Compound 115]
- pIC50 [2]: < 6.00
- pIC50 [3]: < 6.00
- pIC50 [1]: 6.00 to 7.00
- pIC50 [4]: < 6.00

SMILES: C[C@@H](O)C#Cc1nn(Cc2cc3ccccc3nc2N2CCN(C)CC2)c2ncnc(N)c12 [Compound 51]
- pIC50 [1]: < 6.00

SMILES: CC(Nc1ncnc2[nH]cnc12)c1cc2ccccc2nc1N1CCCC1 (stereo not drawn) [Compound 88]
- pIC50 [2]: < 6.00
- pIC50 [3]: < 6.00
- pIC50 [1]: 6.00 to 7.00
- pIC50 [4]: < 6.00

SMILES: CC1CCCN1c1nc2ccccc2cc1Cn1ncc2c(N)ncnc21 (stereo not drawn) [Compound 188]
- pIC50 [3]: < 6.00
- pIC50 [1]: < 6.00
- pIC50 [4]: < 6.00

SMILES: C[C@@H](O)C#Cc1nc2ccccc2nc1Cn1nc(C#C[C@@H](C)O)c2c(N)ncnc21 [Compound 103]
- pIC50 [2]: < 6.00
- pIC50 [1]: < 6.00

SMILES: Nc1ncnc2c1c(-c1cccc(O)c1)nn2Cc1cc2c(nc1-c1ccccc1F)CCC2 [Compound 102]
- pIC50 [1]: < 6.00

SMILES: CCn1c(=O)c(Cn2nc(-c3cc(O)cc(F)c3)c3c(N)ncnc32)nc2ccccc21 [Compound 117]
- pIC50 [2]: < 6.00
- pIC50 [3]: < 6.00
- pIC50 [1]: > 7.00
- pIC50 [4]: < 6.00

SMILES: CN1CCN(c2nc3ccccc3cc2CNc2ncnc3[nH]cnc23)CC1 [Compound 87]
- pIC50 [2]: < 6.00
- pIC50 [3]: < 6.00
- pIC50 [1]: < 6.00
- pIC50 [4]: < 6.00

SMILES: Cc1cccc2cc(Cn3nc(-c4cc(O)cc(F)c4)c4c(N)ncnc43)c(N3CCOCC3)nc12 [Compound 65]
- pIC50 [2]: > 7.00
- pIC50 [3]: 6.00 to 7.00
- pIC50 [1]: > 7.00
- pIC50 [4]: 6.00 to 7.00

SMILES: NC1=NC=NC2C1C(c1ccc(O)nc1)=NN2Cc1cc2ccccc2nc1-c1ccccc1 (stereo not drawn) [Compound 162]
- pIC50 [3]: < 6.00
- pIC50 [4]: < 6.00

SMILES: COc1ccccc1-c1nc2ccccc2cc1Cn1nc(-c2cccc(O)c2)c2c(N)ncnc21 [Compound 14]
- pIC50 [1]: 6.00 to 7.00

SMILES: Nc1ncnc2c1c(-c1ccc(O)nc1)nn2Cc1cc2ccccc2nc1-c1ccccc1F [Compound 161]
- pIC50 [3]: < 6.00
- pIC50 [4]: < 6.00

SMILES: C[C@@H](O)C#Cc1nn(Cc2nc3ccccc3nc2N2CCCC2)c2ncnc(N)c12 [Compound 106]
- pIC50 [2]: < 6.00
- pIC50 [1]: 6.00 to 7.00

SMILES: Nc1ncnc2c1c(-c1cc(O)cc(F)c1)nn2CCn1c(-c2ccccc2)nc2ccccc21 [Compound 126]
- pIC50 [1]: < 6.00

SMILES: N#Cc1nn(Cc2cc3ccccc3nc2-c2ccccc2F)c2ncnc(N)c12 [Compound 189]
- pIC50 [3]: < 6.00
- pIC50 [1]: < 6.00
- pIC50 [4]: < 6.00

SMILES: Nc1ncnc2c1c(-c1cccc3[nH]ncc13)nn2Cc1cc2ccccc2nc1N1CCCC1 [Compound 58]
- pIC50 [2]: 6.00 to 7.00
- pIC50 [1]: 6.00 to 7.00

SMILES: Nc1ncnc2c1c(I)nn2Cc1cc2c(nc1-c1ccccc1F)CCC2 [Compound 100]
- pIC50 [1]: < 6.00

SMILES: COc1ccccc1-c1nc2ccccc2cc1Cn1nc(C#C[C@@H](C)O)c2c(N)ncnc21 [Compound 18]
- pIC50 [1]: < 6.00

SMILES: Nc1ncnc2c1c(-c1cc(F)ccc1O)nn2Cc1cc2ccccc2nc1N1CCCC1 [Compound 22]
- pIC50 [1]: < 6.00

SMILES: NC(=O)c1cccc(-c2nn(Cc3cc4ccccc4nc3N3CCCC3)c3ncnc(N)c23)c1 [Compound 28]
- pIC50 [1]: < 6.00

SMILES: CN(C)c1ncccc1Cn1nc(-c2cc(O)cc(F)c2)c2c(N)ncnc21 [Compound 125]
- pIC50 [1]: < 6.00

SMILES: Nc1ncnc2c1c(-c1ccnc(O)c1)nn2Cc1cc2ccccc2nc1-c1ccccc1 [Compound 178]
- pIC50 [3]: < 6.00
- pIC50 [1]: < 6.00
- pIC50 [4]: < 6.00

SMILES: Nc1ncnc2c1c(-c1cccc(O)c1)nn2Cc1cccnc1N1CCCC1 [Compound 123]
- pIC50 [1]: < 6.00

SMILES: Nc1ncnc2c1c(-c1cc(O)cc(F)c1)nn2Cc1cccnc1N1CCCC1 [Compound 124]
- pIC50 [1]: < 6.00

SMILES: Nc1ncnc2c1c(-c1cc(O)cc(F)c1)nn2Cc1cc2ccccc2nc1-c1ccccc1 [Compound 149]
- pIC50 [4]: < 6.00

SMILES: CC(=O)Nc1nc2ccc(-c3nn(Cc4cc5ccccc5nc4N4CCCC4)c4ncnc(N)c34)cc2s1 [Compound 24]
- pIC50 [3]: 6.00 to 7.00

SMILES: CC(=O)Nc1nc2ccc(-c3nn(Cc4cc5ccccc5nc4-c4ccccc4F)c4ncnc(N)c34)cc2[nH]1 [Compound 183]
- pIC50 [2]: 6.00 to 7.00
- pIC50 [3]: < 6.00
- pIC50 [1]: 6.00 to 7.00

SMILES: C[C@@H](O)C#Cc1nn(Cc2cc3ccccc3nc2N2CCCC2)c2ncnc(N)c12 [Compound 41]
- pIC50 [1]: > 7.00

SMILES: CCC(Nc1ncnc2[nH]cnc12)c1cc2ccccc2nc1N1CCCC1 (stereo not drawn) [Compound 53]
- pIC50 [2]: < 6.00
- pIC50 [1]: 6.00 to 7.00

SMILES: Nc1ncc(-c2nn(Cc3cc4ccccc4nc3-c3ccccc3)c3nccc(N)c23)cn1 [Compound 160]
- pIC50 [3]: < 6.00
- pIC50 [1]: 6.00 to 7.00
- pIC50 [4]: < 6.00

SMILES: Nc1ncnc2c1c(-c1cccnc1)nn2Cc1cc2ccccc2nc1N1CCCC1 [Compound 62]
- pIC50 [2]: 6.00 to 7.00
- pIC50 [1]: 6.00 to 7.00

SMILES: CN1CCN(c2nc3ccccc3cc2Cn2nc(-c3cc(O)cc(F)c3)c3c(N)ncnc32)CC1 [Compound 197]
- pIC50 [4]: 6.00 to 7.00

SMILES: CCC(c1cc2ccccc2nc1-c1ccccc1)n1cnc2c(N)ncnc21 (stereo not drawn) [Compound 37]
- pIC50 [2]: < 6.00
- pIC50 [1]: < 6.00

SMILES: CC(c1cc2ccccc2nc1N1CCCC1)n1cnc2c(N)ncnc21 (stereo not drawn) [Compound 35]
- pIC50 [2]: < 6.00
- pIC50 [1]: < 6.00

SMILES: CN(C)c1ncccc1Cn1nc(-c2cccc(O)c2)c2c(N)ncnc21 [Compound 122]
- pIC50 [1]: < 6.00

SMILES: CC(C)N1CCN(c2nc3ccccc3cc2Cn2nc(-c3ccc4nc(N)sc4c3)c3c(N)ncnc32)CC1 [Compound 164]
- pIC50 [3]: > 7.00
- pIC50 [4]: > 7.00

SMILES: Nc1ncnc2c1c(-c1ccccc1O)nn2Cc1cc2ccccc2nc1N1CCCC1 [Compound 21]
- pIC50 [1]: < 6.00

SMILES: Nc1cc(-c2nn(Cc3cc4ccccc4nc3-c3ccccc3F)c3ncnc(N)c23)ccn1 [Compound 172]
- pIC50 [3]: < 6.00
- pIC50 [1]: < 6.00
- pIC50 [4]: < 6.00

SMILES: Cc1ccccc1-c1ncccc1Cn1nc(-c2cc(O)cc(F)c2)c2c(N)ncnc21 [Compound 121]
- pIC50 [1]: < 6.00

SMILES: CCC(c1cc2ccccc2nc1N1CCCC1)n1cnc2c(N)ncnc21 (stereo not drawn) [Compound 36]
- pIC50 [2]: < 6.00
- pIC50 [1]: < 6.00

SMILES: CN1CCN(c2nc3ccccc3cc2Cn2nc(I)c3c(N)ncnc32)CC1 [Compound 44]
- pIC50 [2]: < 6.00
- pIC50 [1]: 6.00 to 7.00

SMILES: Nc1cc(-c2nn(Cc3cc4ccccc4nc3-c3ccccc3)c3ncnc(N)c23)ccn1 [Compound 173]
- pIC50 [3]: < 6.00
- pIC50 [1]: < 6.00
- pIC50 [4]: < 6.00

SMILES: Nc1ncnc2c1c(-c1ccnc(O)c1)nn2Cc1cc2ccccc2nc1-c1ccccc1F [Compound 177]
- pIC50 [3]: < 6.00
- pIC50 [1]: < 6.00
- pIC50 [4]: < 6.00

SMILES: CC(=O)Nc1cccc(-c2nn(Cc3cc4ccccc4nc3N3CCCC3)c3ncnc(N)c23)c1 [Compound 27]
- pIC50 [1]: < 6.00
